Measured values: patent EP1118615A1, “NOVEL SALTS OF PYRIDOPYRAZINE COMPOUND AND CRYSTALS THEREOF” (FUJISAWA PHARMACEUTICAL CO., LTD., priority 1998, dated 2000)

Tests used:
[1] = target: T1, human PDE4-B1 isoform (Homo sapiens, UniProt Q07343); assay: (A1) PDE-IV inhibitory activity, crude enzyme from CHO cells expressing the cDNA; type: biochemical
T1 construct: made in house; host or cells: CHO cells
Protocol: (A1) PDE-IV inhibitory activity [Method] A crude enzyme was prepared from the cells (CHO cells) to which the cDNA for human PDE4-B1 isoform had been introduced for expression of the protein and the PDE4 inhibitory activity of the compound (I) of this invention was determined.

[2] = (A3) Anti-CD3/CD28 antibody-stimulated cytokine production inhibitory activity in PBMC, ELISA: TNF γ; type: cell-based; details: Homo sapiens, anti-CD3 and anti-CD28 antibodies, 24-hr culture supernatant
Protocol: (A3) Anti-CD3/CD28 antibody-stimulated TNF α production inhibitory activity in human peripheral blood monocytes (PBMC)
[Method] Monocytes isolated from healthy adult male volunteers were cultured and stimulated with anti-CD3 and anti-CD28 antibodies and the amounts of TNF, INF, 1L-2, IL-4 and IL-10 in the 24-hr culture supernatant were determined by ELISA.

[3] = system: P. acnes/LPS-induced mouse hepatitis model; assay: (B4) P. acnes/LPS-induced mouse hepatitis model; type: in vivo, ICR mice; details: oral, 9 hours after administration of the drug
Protocol: (B4) P. acnes/LPS-induced mouse hepatitis model
[Method] Propionibacterium acnes (P. acnes) killed by heat treatment was lyophilized and used in the experiment. To 7-week-old male ICR mice, either saline or P. acnes, 0.6 mg/0.2 ml/mouse, was administered intravenously. After 7 days, the drug or the solvent vehicle was administered orally in predetermined doses to the animals deprived of food for 20 hours. At. 9 hours after administration of the drug, the blood was drawn and the liver-derived enzymes (ALT and AST) in plasma were assayed.

[4] = system: mouse model of NC/NGa dermatitis; assay: (B7) Atopy, Method 2: spontaneous atopic dermatitis model; type: in vivo; details: oral once daily for 17 consecutive days
Protocol: [Method 2] Spontaneous atopic dermatitis mode:
In the mouse model of NC/NGa dermatitis, the drug was administered orally once daily for 17 consecutive days.

[5] = system: antigen-induced eosinophil infiltration in guinea pigs; assay: (B8) Inhibitory effect on antigen-induced eosinophil infiltration in guinea pigs; type: in vivo, Hartley guinea pigs; details: oral 1 hour before the challenge; BAL 24 hours after challenge
Protocol: (B8) Inhibitory effect on antigen-induced eosinophil infiltration in guinea pigs
[Method] Male Hartley guinea pigs were sensitized by intravenous administration of guinea-pig anti-ovalbumin (OVA) antiserum. After 24 hours, an antigen challenge was performed by inhalation exposure to a nebulized 1% solution of OVA. At 24 hours after challenge with the antigen, the bronchial alveolar lavage (BAL) was collected and the number of eosinophils was determined using the eosinophil peroxidase activity in BAL as an indicator. The drug was administered orally 1 hour before the challenge. [Results]

[6] = Hygroscopicity; type: physicochemical
Description: In the study on polymorphism of compound (I), six kinds of polymorphs (A01, A09, A16, A20, A30 and A43 crystals) were found. For each of those polymorphs, hygroscopicity, stability in solid state, solubility and changes in crystallinity on compounding with various solvents were studied. However, the A30 crystal was not studied since it contains ethanol.

T1 sequence (Q07343 whole entry, canonical isoform): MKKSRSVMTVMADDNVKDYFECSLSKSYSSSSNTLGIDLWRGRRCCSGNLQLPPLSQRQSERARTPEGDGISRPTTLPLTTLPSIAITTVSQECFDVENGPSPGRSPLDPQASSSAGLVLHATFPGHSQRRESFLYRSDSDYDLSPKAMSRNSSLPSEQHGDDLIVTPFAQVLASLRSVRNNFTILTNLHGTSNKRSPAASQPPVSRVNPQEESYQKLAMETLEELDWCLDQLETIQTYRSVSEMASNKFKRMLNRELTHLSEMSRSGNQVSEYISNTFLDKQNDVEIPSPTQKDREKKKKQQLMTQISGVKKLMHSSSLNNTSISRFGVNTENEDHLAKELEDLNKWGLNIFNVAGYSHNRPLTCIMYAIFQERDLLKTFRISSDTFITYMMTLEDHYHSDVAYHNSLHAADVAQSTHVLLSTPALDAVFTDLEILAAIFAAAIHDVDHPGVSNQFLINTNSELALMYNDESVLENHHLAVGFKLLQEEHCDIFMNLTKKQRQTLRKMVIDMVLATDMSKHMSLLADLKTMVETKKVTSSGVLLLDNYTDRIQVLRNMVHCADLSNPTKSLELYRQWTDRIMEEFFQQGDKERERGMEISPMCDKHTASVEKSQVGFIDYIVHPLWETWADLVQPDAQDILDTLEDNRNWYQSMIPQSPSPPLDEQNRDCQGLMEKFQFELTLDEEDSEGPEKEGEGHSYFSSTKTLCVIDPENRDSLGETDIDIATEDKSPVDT

In the case of `CS(=O)(=O)O.O.O.O=C(Nc1cccc(-n2c(=O)c(Cc3cccnc3)nc3cccnc32)c1)c1cc(Cl)cc(Cl)c1` [Example 2, 4-(3-(3,5-dichlorobenzoylamino)phenyl)-2-(3-pyridyl)methyl-3-oxo-3,4-dihydropyrido[2,3-b]pyrazine methanesulfonate dihydrate], the IC50 [1] is reported as 26 nM, the IC50 [2] is reported as 57.3 nM and the “elevation of blood ALT” value [3] is reported as “significantly inhibited”. For the same molecule, the “elevation of blood AST” value [3] was “significantly inhibited”, the disease state-ameliorating effect [4] was “significant disease state-ameliorating effect” and the “infiltration of eosinophils and other inflammatory cells into the bronchial alveola” value [5] was “inhibited”. For the same molecule, the Hygroscopicity [6] was “less hygroscopic”.
